Consider five molecules from patent publication US20160250190A1, “N-METHYL PYRAZOLOANTHRONE FOR TREATMENT OF CANCER” (THE GENERAL HOSPITAL CORPORATION, priority 2013, published 2016).

For series [1], the system named is ptD primary ovarian cancer cells. Kind of series: MTT assay in ptD cells. It is filed as cell-based, human. The settings on record: for IC50: Homo sapiens; for IC50 / dose of single agent giving virtually complete cell death (95% cell death): ptD, 72 h; for dose of single agent giving virtually complete cell death (95% cell death): agent alone. As for the experimental part:
Drug responses were evaluated in the well-established OVCAR5 cancer cell line and a variety of primary ovarian cancer cells lines derived from patient ascites (ptD, ptH, ptG, PKD1, PKD2).

The test system of series [2] is OVCAR5 cells. Kind of series: MTT assay in OVCAR5 cells. Format: cell-based, human. The settings on record: for IC50: Homo sapiens, OVCAR-5, 72 h; for dose of single agent giving virtually complete cell death (95% cell death): 72 h, agent alone. As to the method:
(§1) Drug responses were evaluated in the well-established OVCAR5 cancer cell line and a variety of primary ovarian cancer cells lines derived from patient ascites ([…], PKD1, PKD2).

In series [3] the test system is PtD cells xenografted in the flank of nude mice. As to the kind of experiment: PtD xenograft in nude mice. It is filed as in vivo. The settings on record: 30 mg/kg/day for 3 consecutive days.
Series [4] relates to c-JUN phosphorylation (canonical downstream target of JNKs). Kind of series: western blot of c-JUN phosphorylation in ptD cells. Format: cell-based, human. As to conditions: 25 uM, 30 min. (Immunoblotting shows a protein as a band on a membrane.)
Series [5] relates to OVCAR5 cells. As to the kind of experiment: cell cycle distribution by PI staining and flow cytometry in OVCAR5 cells. As to conditions: OVCAR5 synchronized by serum deprivation 24 h, 25 uM with 10% serum. It is filed as cell-based, human. From the text: (§2) This pattern is observed in both cells lines, but is particularly pronounced in OVCAR5 (FIG. 5C).
On the technique in general: In flow cytometry, cells or beads pass a laser one at a time.

Series [6] deals with 300 kinases. As to conditions: 0.5 μM inhibitor, 10 uM ATP; cited from earlier work.
Series [7] deals with CDKi P15. As to the kind of experiment: qPCR expression of CDKi P15. Format: cell-based. An excerpt:
(§3) To decipher the mechanism of cell cycle block observed by treatment with M-SP600, the inventors next assessed the expression of the kinases CDKi P15 and P21 by qPCR, since these kinases control G1/S transition.
For orientation: Quantitative PCR measures a nucleic acid by following its amplification.

Series [8] has as its system OVCAR5 cells xenografted in the flank of nude mice. As to the kind of experiment: OVCAR5 xenograft in nude mice. It is filed as in vivo, mouse. The settings on record: 60 mg/kg/day, 5 days on 2 days off for 3 weeks. As for the experimental part:
A longer experiment was subsequently carried out using OVCAR5 cells xenografted at 1×10^6 in the flank of nude mice, which were treated 72 h later in a 5 days on 2 days off schedule for 3 weeks at a dose of 60 mg/kg/day using 3 groups of 5 mice randomly selected.

Series [9] relates to CDKi P21. Kind of series: qPCR expression of CDKi P21 in ptD cells. Format: cell-based, human. The settings on record: 25 μM, 2-48 h.
From the text: as §3

Series [10] has as its system OVCAR5 and primary ovarian cancer cell lines (ptD, ptH, ptG, PKD1, PKD2). Kind of series: MTT assay in a panel of ovarian cancer cell lines. Format: cell-based, human. The settings on record: 72 h, all cell lines. As to the method: as §1
In series [11] the target is T1, MISR2 (MISRII) (Rattus norvegicus, UniProt Q62893).
T1 construct: UGR tissue is dissected from 14.5d female fetal rats and cultured ex-vivo; from tissue; host or cells: fetal rat urogenital ridge (14.5d female), organ culture
T1 sequence (Q62893 18-557): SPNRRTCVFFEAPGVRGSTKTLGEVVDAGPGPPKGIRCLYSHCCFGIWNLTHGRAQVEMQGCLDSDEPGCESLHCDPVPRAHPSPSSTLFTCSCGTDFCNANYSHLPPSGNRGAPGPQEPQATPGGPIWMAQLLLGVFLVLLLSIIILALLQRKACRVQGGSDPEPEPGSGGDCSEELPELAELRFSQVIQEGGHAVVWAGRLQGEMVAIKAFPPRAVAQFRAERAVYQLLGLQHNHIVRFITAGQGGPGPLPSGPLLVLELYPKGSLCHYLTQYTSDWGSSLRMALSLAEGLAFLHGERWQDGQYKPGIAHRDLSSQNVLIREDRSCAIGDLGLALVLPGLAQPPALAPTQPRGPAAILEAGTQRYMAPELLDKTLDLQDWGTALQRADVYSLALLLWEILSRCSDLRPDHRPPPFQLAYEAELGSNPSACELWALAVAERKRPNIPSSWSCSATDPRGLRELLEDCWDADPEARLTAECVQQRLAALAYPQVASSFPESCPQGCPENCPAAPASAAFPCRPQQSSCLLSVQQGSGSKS
As to the kind of experiment: rat fetal urogenital ridge (UGR) assay. The settings on record: UGR culture, 72 h. As for the experimental part: UGR tissue is dissected from 14.5d female fetal rats and cultured ex-vivo on a semi solid substrate (agarose droplet on a metal grid) suspended over media at the air/media interface. The UGR from each female is cultured for 72 h in presence of the drugs while the contralateral ridge is cultured in vehicle (DMSO) as a control. The regression of the Mullerian duct, which is specific to MIS activity, is measured in sections of UGR after fixing and embedding.

The subject of series [12] is ptD cells. As to the kind of experiment: cell cycle distribution by PI staining and flow cytometry in ptD cells. Format: cell-based, human.
From the text: as §2

Series [13] concerns JNKs. As to conditions: Bennet et al. 2001; cited from earlier work.

“Also recorded” adds a separate entry of the source.

Usually IC50 stands for the concentration that gives 50% inhibition. A high value points to lower potency.

As to `Oc1c2ccccc2c2c3c(cccc13)N=N2` [SP600, 1,9-pyrazoloathrone, reference compound], the IC50 in series [1] was determined as 6.25 µM; in [2] it was 12.5 µM. In addition, the tolerability entry in series [3] is reported as “well tolerated”.
`CCCS(=O)(=O)Nc1ccc(F)c(C(=O)c2c[nH]c3ncc(-c4ccc(Cl)cc4)cc23)c1F` [Vemurafinib]: the “sensitivity of cells to the drug” value in series [1] (ptD cells with BRAF V600E mutation) was “exquisitely sensitive”.
As to `CCOc1nc(NC(=O)Cc2cc(OC)ccc2OC)cc(N)c1C#N` [JNK inhibitor VIII, reference compound], in [4], the c-JUN phosphorylation entry is “inhibited”.
Take `COc1cccc2c1C(=O)c1c(O)c3c(c(O)c1C2=O)C[C@@](O)(C(=O)CO)C[C@@H]3O[C@H]1C[C@H](N)[C@H](O)[C@H](C)O1` [DOX, doxorubicin, reference compound]: the “dose of single agent giving virtually complete cell death (95% cell death)” value in series [1] was “greater than 300 μM”; in [2], 300 µM.
Regarding `Cn1nc2c3c(cccc31)C(=O)c1ccccc1-2` [M-SP600, N1-methyl-1,9-pyrazolothrone], the cell cycle block entry in series [5] is “causes a G1 block”; in series [12] (ptD synchronized by serum deprivation 24 h, 25 uM with 10% serum), “causes a G1 block”. In addition, the “number of kinases inhibited at more than 50%” value in series [6] is 4. The “expression of P15” value in [7] is “upregulation of P21 and P15”. Moreover, the values for the IC50 in series [1] and in series [2] were 6.25 µM and 12.5 µM, respectively. The “dose of single agent giving virtually complete cell death (95% cell death)” value in series [1] and in [2] was 50 µM each time. In addition, the tumor growth result in series [8] (versus control at day 15) is reported as “significantly inhibited”; in [8] (versus control at day 15, listed as MSP600, 60 mg/kg/day), “significantly lower than control”; in series [3] (one week after implant), “strong trend emerged of inhibition of tumor growth”. In addition, in series [9], the “expression of P21 by qPCR” value is “induce P21; also recorded: greater for the M-SP600 than the SP600”. Besides, the tolerability entry in series [3] is “well tolerated”. Moreover, the “inhibition of cancer cell growth” value in series [10] is “inhibited”. In series [11], the “size of Wolffian ducts” value is recorded as “smaller Wolffian ducts”. For the same molecule, in [12] (asynchronous ptD cells, 25 uM, 24 h), the cell cycle distribution entry was “marked reduction in cells in S phase accompanied by an accumulation of cells particularly in G1 and less so in G2; also recorded: more pronounced with M-SP600 than SP600”. Also, in [13], the “inhibition of JNKs” value is recorded as “does not inhibit JNKs”.
